Data set [1] can be described thus: The drug is tested on Collinsella intestinalis strain: DSM13280 for biotransformation. The drug concentrations were measured before and after a 12-h incubation by liquid-chromatography-coupled mass spectrometry (LC–MS). The following applies: 2 µM.
Data set [2] can be described thus: The drug is tested on Bacteroides caccae strain: ATCC43185 for biotransformation. The drug concentrations were measured before and after a 12-h incubation by liquid-chromatography-coupled mass spectrometry (LC–MS). The conditions noted are these: 2 µM.
Data set [3] is described as follows: The drug is tested on Bacteroides cellulosilyticus strain: DSM14838 for biotransformation. The drug concentrations were measured before and after a 12-h incubation by liquid-chromatography-coupled mass spectrometry (LC–MS). The following applies: 2 µM.
Data set [4] can be described thus: The drug is tested on Bacteroides finegoldii strain: DSM17565 for biotransformation. The drug concentrations were measured before and after a 12-h incubation by liquid-chromatography-coupled mass spectrometry (LC–MS). The following applies: 2 µM.
Data set [5] can be described thus: The drug is tested on Parabacteroides merdae strain: ATCC43184 for biotransformation. The drug concentrations were measured before and after a 12-h incubation by liquid-chromatography-coupled mass spectrometry (LC–MS). The following applies: 2 µM.
A short description of data set [6]: The drug is tested on Anaerococcus hydrogenalis strain: DSM7454 for biotransformation. The drug concentrations were measured before and after a 12-h incubation by liquid-chromatography-coupled mass spectrometry (LC–MS). The following applies: 2 µM.
Data set [7] in a line: The drug is tested on Anaerotruncus colihominis strain: DSM17241 for biotransformation. The drug concentrations were measured before and after a 12-h incubation by liquid-chromatography-coupled mass spectrometry (LC–MS). The conditions noted are these: 2 µM.
Data set [8] is described as follows: The drug is tested on Blautia luti strain: DSM14534 for biotransformation. The drug concentrations were measured before and after a 12-h incubation by liquid-chromatography-coupled mass spectrometry (LC–MS). It is filed as ADME. Details: dose 2 uM, timepoint 0 vs 12 hours. The following applies: 2 µM.
Data set [9] in a line: The drug is tested on Clostridium scindens strain: ATCC35704 for biotransformation. The drug concentrations were measured before and after a 12-h incubation by liquid-chromatography-coupled mass spectrometry (LC–MS). The conditions noted are these: 2 µM.
The nature of data set [10]: The drug is tested on Clostridium sporogenes strain: ATCC15579 for biotransformation. The drug concentrations were measured before and after a 12-h incubation by liquid-chromatography-coupled mass spectrometry (LC–MS). The following applies: 2 µM.
Data set [11] can be described thus: The drug is tested on Ruminococcus gnavus strain: ATCC29149 for biotransformation. The drug concentrations were measured before and after a 12-h incubation by liquid-chromatography-coupled mass spectrometry (LC–MS). The conditions noted are these: mediterraneibacter gnavus, 2 µM.
Data set [12] is described as follows: The drug is tested on Subdoligranulum variabile strain: DSM15176 for biotransformation. The drug concentrations were measured before and after a 12-h incubation by liquid-chromatography-coupled mass spectrometry (LC–MS). The conditions noted are these: 2 µM.
Data set [13] can be described thus: The drug is tested on Edwardsiella tarda strain: ATCC23685 for biotransformation. The drug concentrations were measured before and after a 12-h incubation by liquid-chromatography-coupled mass spectrometry (LC–MS). The conditions noted are these: 2 µM.
Data set [14] in a line: The drug is tested on Enterobacter cancerogenus strain: ATCC35316 for biotransformation. The drug concentrations were measured before and after a 12-h incubation by liquid-chromatography-coupled mass spectrometry (LC–MS). The conditions noted are these: 2 µM.
A short description of data set [15]: The drug is tested on Providencia rettgeri strain: DSM1131 for biotransformation. The drug concentrations were measured before and after a 12-h incubation by liquid-chromatography-coupled mass spectrometry (LC–MS). It is filed as ADME. Details: dose 2 uM, timepoint 0 vs 12 hours. The following applies: 2 µM.
For data set [16] the following is noted: bacteroides stercoris, 12 h, 2 µM.
Description: The drug is tested on Bacteroides stercoris strain: ATCC43183 for biotransformation. The drug concentrations were measured before and after a 12-h incubation by liquid-chromatography-coupled mass spectrometry (LC–MS)
For data set [17] the following is noted: bacteroides thetaiotaomicron, 12 h, 2 µM.
Description: The drug is tested on Bacteroides thetaiotaomicron strain: 3731 for biotransformation. The drug concentrations were measured before and after a 12-h incubation by liquid-chromatography-coupled mass spectrometry (LC–MS)
Data set [18] in a line: The drug is tested on Clostridium sp. strain: fecal isolate for biotransformation. The drug concentrations were measured before and after a 12-h incubation by liquid-chromatography-coupled mass spectrometry (LC–MS). The following applies: 2 µM.
The conditions of data set [19]: parabacteroides distasonis, 12 h, 2 µM.
Description: The drug is tested on Parabacteroides distasonis strain: ATCC8503 for biotransformation. The drug concentrations were measured before and after a 12-h incubation by liquid-chromatography-coupled mass spectrometry (LC–MS)

The values below come from ChEMBL document CHEMBL5303573, “Mapping human microbiome drug metabolism by gut bacteria and their genes” (Nature, 2019).

For the molecule `CCCC(=O)Nc1ccc(OCC(O)CNC(C)C)c(C(C)=O)c1` (configuration not stated) [ACEBUTOLOL], the “Bacterial Biotransformation” value in data set [1], in data set [2], in [3], in data set [4], in data set [5] and in [6] was “Compound NOT metabolized” throughout. Moreover, the “Bacterial Biotransformation” value in data set [7], in data set [8], in data set [9], in data set [10], in [11] and in data set [12] was “Compound NOT metabolized” each time. Further, the “Bacterial Biotransformation” value in [13], in data set [14], in [15], in [16] and in [17] was “Compound NOT metabolized” in each case.
For `CCN1CCCC1CNC(=O)c1cc(S(=O)(=O)CC)c(N)cc1OC` (configuration not stated) [AMISULPRIDE], the “Bacterial Biotransformation” value in data set [1], in [2], in data set [3], in data set [4], in [5] and in data set [6] was “Compound NOT metabolized” each time. For the same molecule, the “Bacterial Biotransformation” value in data set [7], in data set [8], in data set [18], in data set [9], in data set [10] and in data set [11] was “Compound NOT metabolized” throughout. Besides, the “Bacterial Biotransformation” value in data set [12], in [13], in [14], in [15], in data set [16] and in [17] was “Compound NOT metabolized” each time. Besides, in data set [19], the “Bacterial Biotransformation” value is “Compound NOT metabolized”.
Regarding `CN1CCC(=C2c3ccccc3CCc3cccnc32)CC1.O=C(O)/C=C\C(=O)O.O=C(O)/C=C\C(=O)O` [AZATADINE MALEATE], the “Bacterial Biotransformation” value in data set [1], in data set [2], in data set [3], in data set [4], in data set [5] and in data set [6] was “Compound NOT metabolized” each time. Also, the “Bacterial Biotransformation” value in data set [7], in data set [8], in data set [18], in data set [9], in data set [10] and in data set [11] was “Compound NOT metabolized” in each case. The “Bacterial Biotransformation” value in data set [12], in data set [13], in data set [14], in data set [15], in data set [16] and in data set [17] was “Compound NOT metabolized” each time. Moreover, the “Bacterial Biotransformation” value in data set [19] is listed as “Compound NOT metabolized”.
With `OC(CCN1CCCCC1)(c1ccccc1)C1CC2C=CC1C2` (configuration not stated) [BIPERIDEN], the “Bacterial Biotransformation” value in [1], in data set [2], in data set [3], in data set [4], in data set [5] and in [6] was “Compound NOT metabolized” each time. Besides, the “Bacterial Biotransformation” value in [7], in data set [8], in data set [18], in data set [9], in data set [10] and in data set [11] was “Compound NOT metabolized” each time. In addition, the “Bacterial Biotransformation” value in data set [12], in [13], in data set [14], in data set [15], in [16] and in data set [17] was “Compound NOT metabolized” in each case.
As for `CC(NC(C)(C)C)C(=O)c1cccc(Cl)c1` (configuration not stated) [BUPROPION], the “Bacterial Biotransformation” value is on record as “Compound NOT metabolized” in data set [1]; “Compound NOT metabolized” in data set [2]; “Compound NOT metabolized” in data set [3]; “Compound NOT metabolized” in [4]; “Compound metabolized” in data set [5]; “Compound NOT metabolized” in data set [6]. Also, the “Bacterial Biotransformation” value in [7], in data set [8], in data set [18], in [9], in [10] and in data set [11] was “Compound NOT metabolized” throughout. Moreover, the “Bacterial Biotransformation” value in data set [12], in [13], in data set [14], in data set [16], in data set [17] and in data set [19] was “Compound NOT metabolized” throughout.
For the molecule `CN1CCN(C2=Nc3cc(Cl)ccc3Nc3ccccc32)CC1` [CLOZAPINE], the “Bacterial Biotransformation” value in data set [1], in data set [2], in data set [3], in data set [4], in [5] and in [6] was “Compound NOT metabolized” throughout. Besides, the “Bacterial Biotransformation” value in data set [8], in [18], in data set [9], in data set [11], in data set [12] and in data set [13] was “Compound NOT metabolized” throughout. Moreover, the “Bacterial Biotransformation” value in data set [14], in [15], in data set [16] and in [17] was “Compound NOT metabolized” in each case.
